Data: ChEMBL document CHEMBL1123995, “N-sulfonyl imidates as a novel prodrug form for an ester function or a sulfonamide group” (J Med Chem, 1988)

How the values were obtained:
Assay type in all cases: ADME
[1] = Half life of 80% diluted human plasma with 0.01 M phosphate buffer of pH 7.4; details: 80% human plasma
[2] = Half-life of hydrolysis at pH 6.0 at 37 degree C; details: buffer
[3] = Half-life of hydrolysis at pH 7.4 at 37 degree C; details: buffer
[4] = Half-life of hydrolysis at pH 4.0 at 37 degree C; details: buffer

half-life [1] [h]	half-life [2] [h]	half-life [3] [h]	half-life [4] [h]	Structure (SMILES)
< 0.0167	0.02	0.0133	–	CCO/C=N\S(=O)(=O)c1ccc(C)cc1
0.333	3.67	2.92	–	CCO/C(=N\S(=O)(=O)c1ccc(C)cc1)c1ccccc1
0.467	–	2.67	–	CCCC/C(=N/S(=O)(=O)c1ccc(C)cc1)OC
0.135	2.5	1.38	–	CO/C(C)=N\S(=O)(=O)c1ccc(C)cc1
0.533	–	2.42	–	CCC/C(=N/S(=O)(=O)c1ccc(C)cc1)OC
1.3	–	26.3	–	CCOC(=NS(=O)(=O)c1ccc(C)cc1)OCC
0.4	–	1.8	–	CCO/C(CC)=N\S(=O)(=O)c1ccc(C)cc1
0.533	14.5	4.25	–	COC(=NS(=O)(=O)c1ccc(C)cc1)OC
0.107	2.92	2.4	–	CCO/C(C)=N\S(=O)(=O)c1ccc(C)cc1

Second part, the molecule before the results:

Structure (SMILES)	half-life [1] [h]	half-life [2] [h]	half-life [3] [h]	half-life [4] [h]
CCCO/C(=N\S(=O)(=O)c1ccc(C)cc1)c1ccccc1	0.333	–	2.92	–
Cc1ccc(S(=O)(=O)/N=C(\OCC(=O)N(C)C)c2ccccc2)cc1	0.0333	–	2.4	–
Cc1ccc(S(=O)(=O)/N=C(\OCCN(C)C)c2ccccc2)cc1.Cl	< 0.0167	–	0.045	0.583
Cc1ccc(S(=O)(=O)/N=C(\OCCN2CCCCC2)c2ccccc2)cc1.Cl	< 0.0167	–	0.0217	0.583
Cc1ccc(S(=O)(=O)/N=C(\OCCCN(C)C)c2ccccc2)cc1.Cl	0.0667	–	0.183	0.883
Cc1ccc(S(=O)(=O)/N=C(\OC2CCN(C)CC2)c2ccccc2)cc1.Cl	0.6	1.5	1.48	–
CO/C(=N\S(=O)(=O)c1ccc(C)cc1)c1ccccc1	0.117	–	1.9	–
Cc1ccc(S(=O)(=O)/N=C(\OCCN2CCCC2=O)c2ccccc2)cc1	0.08	–	1.25	–
Cc1ccc(S(=O)(=O)/N=C(\OC(C)C)c2ccccc2)cc1	3.25	23	17.4	–
Cc1ccc(S(=O)(=O)/N=C(\Oc2ccccc2C(=O)OCC(=O)N(C)C)c2ccccc2)cc1	0.01	1.55	1.52	–
